Where two headings read alike, the source gives them in different places.
What was measured:
[1] = tested on: fungal and bacterial biofilms; test: Biofilm assays (sustained inhibition and disruption), fungal and bacterial biofilms; assay type: cell-based; conditions: for Effect on bacterial or fungal biofilms in both assays: sustained inhibition and disruption
Experimental: (§1) Two types of biofilm assays were performed: a sustained inhibition assay and a disruption assay. The sustained inhibition assay assesses the compound's ability to prevent biofilm development throughout all stages of biofilm formation, while the disruption assay assesses the compound's ability to break up an existing mature biofilm. These assays are described in detail in the following article: Lohse, M. B., Gulati, M., Valle Arevalo, A., Fishburn, A., Johnson, A. D., and Nobile, C. J. (2017) Assessment and optimizations of Candida albicans in vitro biofilm assays. Antimicrobial Agents and Chemotherapy 61: e02749-16.
(§2) For fungal biofilm assays, all solutions were prepared in RPMI 1640 medium. All bacterial biofilm solutions were prepared in Trypic Soy Broth (TSB), supplemented with 1% glucose (henceforth referred to as TSB-G). All subsequent procedures were performed in a manner that maintained sterility. A solution of each amino acid to be tested was prepared in weight to volume concentrations ranging from 0.1-5.0%. Amino acids were also tested in combinations. Compound solutions were homogenized with gentle agitation in the dark (4° C., 24 hours) before use.
(§3) All biofilm assays were performed using 384-well non-tissue culture treated polystyrene plates. The fungal species tested are as follows: Candida albicans, Candida guilhermondii, Candida parapsilosis, Candida glabrata, Candida tropicalis, Candida dubliniensis, and Candida auris. The bacterial species tested are as follows: Staphylococcus aureus (standard wild type and methicillin-resistant strain USA300), Escherichia coli, Pseudomonas aeruginosa and Staphylococcus epidermidis.
Fungal strains were streaked on Yeast Peptone Dextrose (YPD) agar plates and incubated at 30° C. for 48 hours. A single colony from each strain to be tested was inoculated into YPD broth and grown for 12 hours, at 30° C., shaking at 225 rpm. For the fungal biofilm inhibition assay, 1 μl of saturated overnight cell culture was added to either 80 μL of RPMI-1640 or RPMI-1640 supplemented with the amino acid compound solution to be tested, in a 384-well plate. The cells were allowed to adhere to the plate for 90 minutes at 37° C. with shaking (350 rpm). Loosely bound cells were washed once with phosphate buffered saline (PBS) and 80 ul of RPMI-1640, or RPMI-1640 supplemented with the amino acid compound solution was added to the plate. The plate was further incubated for 24 hours at 37° C. with shaking (350 rpm). Media was carefully aspirated and the biofilm was measured by optical density at 600 nm. Twelve replicates were performed for each tested condition and the reported values are normalized to the control (RPMI-1640 media only). For the fungal biofilm disruption assays, 80 μL of RPMI-1640 was added to the plate, along with 1 μL of overnight cell culture. The cells were allowed to adhere to the plate for 90 minutes at 37° C. with shaking (350 rpm). Loosely bound cells were washed once with PBS and 80 μL of RPMI-1640 was added to the plate. The plate was further incubated for 24 hours at 37° C. with shaking (350 rpm). Media was carefully aspirated from the mature biofilm and 80 μL of RPMI-1640, or RPMI-1640 supplemented with the amino acid compound solution to be tested, was gently added to the plate. The plate was further incubated for 24 hours at 37° C. with shaking (350 rpm). Media was carefully aspirated and the biofilm was measured by optical density at 600 nm. Twelve replicates were performed for each tested condition and the reported values are normalized to the control (RPMI-1640 media only).
Bacterial strains were streaked on Blood Agar plates (5% sheep blood in Tryptic Soy Agar) and incubated at 37° C. for 24 hours. A single colony from each strain to be tested was inoculated in a TSB broth and grown for 12 hours, at 37° C. with shaking (225 rpm).

S. aureus [2] = test: Sustained inhibition biofilm assay, bacterial; assay type: cell-based, Staphylococcus aureus; conditions: for activation at 1 %: Staphylococcus aureus, read-out: Promote B Biofilm
Experimental: (§4) Two types of biofilm assays were performed: a sustained inhibition assay and a disruption assay. The sustained inhibition assay assesses the compound's ability to prevent biofilm development throughout all stages of biofilm formation, while the disruption assay assesses the compound's ability to break up an existing mature biofilm. These assays are described in detail in the following article: Lohse, M. B., Gulati, M., Valle Arevalo, A., Fishburn, A., Johnson, A. D., and Nobile, C. […] Antimicrobial Agents and Chemotherapy 61: e02749-16.
(§5) All bacterial biofilm solutions were prepared in Trypic Soy Broth (TSB), supplemented with 1% glucose (henceforth referred to as TSB-G). All subsequent procedures were performed in a manner that maintained sterility. A solution of each amino acid to be tested was prepared in weight to volume concentrations ranging from 0.1-5.0%. Amino acids were also tested in combinations. Compound solutions were homogenized with gentle agitation in the dark (4° C., 24 hours) before use.
(§6) Bacterial strains were streaked on Blood Agar plates (5% sheep blood in Tryptic Soy Agar) and incubated at 37° C. for 24 hours. A single colony from each strain to be tested was inoculated in a TSB broth and grown for 12 hours, at 37° C. with shaking (225 rpm). For the bacterial biofilm inhibition assays, 1 μL of saturated overnight cell culture was added to either 80 μL of TSB-G, or TSB-G supplemented with the amino acid compound solution to be tested, in a 384-well plate. The cells were allowed to adhere to the plate for 60 minutes at 37° C. without shaking. The media was carefully aspirated and 80 μL of TSB-G, or TSB-G supplemented with the amino acid compound solution was added to the plate. The plate was further incubated for 24 hours at 37° C. without shaking. Media was carefully aspirated and the biofilm was measured by optical density at 600 nm. Eight or twelve replicates were performed for each tested condition and the reported values are normalized to the control (TSB-G media only). For the bacterial biofilm disruption assays, 80 μL of TSB-G was added to the plate, along with 1 μL of overnight cell culture. The cells were allowed to adhere to the plate for 60 minutes at 37° C. with no shaking. The media was carefully aspirated and 80 μL of TSB-G was added to the plate. The plate was further incubated for 24 hours at 37° C. with no shaking. Media was carefully aspirated from the mature biofilm and 80 μL of TSB-G, or TSB-G supplemented with the amino acid to be tested, was gently added to the plate. The plate was further incubated for 24 hours at 37° C. without shaking. Media was aspirated and the biofilm was measured by optical density at 600 nm. Twelve replicates were performed for each tested condition and the reported values are normalized to the control (TSB-G media only).

S. aureus [3] = test: Disruption biofilm assay, bacterial; assay type: cell-based, Staphylococcus aureus; conditions: for inhibition at 1 % / activation at 1 %: Staphylococcus aureus; for inhibition at 1 %: 24 h, read-out: Reduce B Biofilm; for activation at 1 %: read-out: Promote B Biofilm
Experimental: as §4, §5, §6

bacterial biofilms = test: Biofilm assays (sustained inhibition and/or disruption), bacterial biofilms; assay type: cell-based; conditions: in at least one of the two biofilm assays; for Anti-biofilm effect against bacterial biofilms (reduction): administered individually at about 0.1 to about 5.0% weight to volume
Experimental: as §1, §2, §3, §6

[4] = sustained inhibition assay, S. aureus, 1% amino acid (unless specifically noted), p≤0.001
[5] = disruption assay, S. aureus, 1% amino acid (unless specifically noted), p≤0.001

Cn1cnc(C[C@H](N)C(=O)O)c1 [1-Methylhistidine, 1-methyl-L-histidine]
Effect on bacterial or fungal biofilms in both assays [1]: neutral

NC(CCCC(=O)O)C(=O)O (stereo not shown) [2 Aminoadipic Acid, 2-aminoadipic acid]
Reduce B Biofilm (S. aureus [2]; [4]): ● (a single dot [ie. •] signifies minor effect (from about 10 to about 30% change))
inhibition at 1 % (S. aureus [3]; [5]): 10 to 30%
Anti-biofilm effect against bacterial biofilms (reduction) (bacterial biofilms): less than twofold

CCC(N)C(=O)O (stereo not shown) [2 Aminobutyric Acid, 2-aminobutyric acid]
Effect on bacterial or fungal biofilms in both assays [1]: neutral

C[C@H](N)C(=O)O [Alanine, L-alanine]
activation at 1 % (S. aureus [3]; [5]): 10 to 30%
Effect on bacterial biofilm growth (bacterial biofilms): support (improve) bacterial biofilm growth

N=C(N)NCCC[C@H](N)C(=O)O [Arginine, L-arginine]
activation at 1 % (S. aureus [2]): 10 to 30%
activation at 1 % (S. aureus [3]): 10 to 30%
Effect on bacterial biofilm growth (bacterial biofilms): support (improve) bacterial biofilm growth

NC(=O)C[C@H](N)C(=O)O [Asparagine, L-asparagine]
activation at 1 % (S. aureus [2]; [4]): 10 to 30%
Effect on bacterial biofilm growth (bacterial biofilms): support (improve) bacterial biofilm growth

NCCC(=O)O [Beta-Alanine, Beta-alanine]
Reduce B Biofilm (S. aureus [2]; [4]): ● (a single dot [ie. •] signifies minor effect (from about 10 to about 30% change))
Anti-biofilm effect against bacterial biofilms (reduction) (bacterial biofilms): less than twofold

NC(=O)NCCC[C@H](N)C(=O)O [Citrulline, L-citrulline]
activation at 1 % (S. aureus [2]): 10 to 30%
activation at 1 % (S. aureus [3]): 10 to 30%
Effect on bacterial biofilm growth (bacterial biofilms): support (improve) bacterial biofilm growth

N[C@@H](CCSC[C@H](N)C(=O)O)C(=O)O [Cystathionine (0.2%), L-cystathionine]
inhibition at 1 % (S. aureus [3]; [5]): 10 to 30%

NCC(=O)O [Glycine, L-glycine]
activation at 1 % (S. aureus [2]; [4]): 10 to 30%
activation at 1 % (S. aureus [3]; [5]): 10 to 30%
Effect on bacterial biofilm growth (bacterial biofilms): support (improve) bacterial biofilm growth

N[C@@H](Cc1c[nH]cn1)C(=O)O [Histidine, L-histidine]
Effect on bacterial or fungal biofilms in both assays [1]: neutral

O=C(O)[C@@H]1C[C@@H](O)CN1 [Hydroxyproline, Trans-4-hydroxy-L-proline]
Reduce B Biofilm (S. aureus [2]; [4]): ● (a single dot [ie. •] signifies minor effect (from about 10 to about 30% change))
inhibition at 1 % (S. aureus [3]): 10 to 30%
Anti-biofilm effect against bacterial biofilms (reduction) (bacterial biofilms): less than twofold

CC[C@H](C)[C@H](N)C(=O)O [Isoleucine, L-isoleucine]
activation at 1 % (S. aureus [3]; [5]): 10 to 30%
Effect on bacterial biofilm growth (bacterial biofilms): support (improve) bacterial biofilm growth

CC(C)C[C@H](N)C(=O)O [Leucine, L-leucine]
activation at 1 % (S. aureus [2]; [4]): 10 to 30%
activation at 1 % (S. aureus [3]; [5]): 10 to 30%
Effect on bacterial biofilm growth (bacterial biofilms): support (improve) bacterial biofilm growth

NCCCC[C@H](N)C(=O)O [Lysine, L-lysine]
activation at 1 % (S. aureus [2]): 10 to 30%
activation at 1 % (S. aureus [3]): 10 to 30%
Effect on bacterial biofilm growth (bacterial biofilms): support (improve) bacterial biofilm growth

CSCC[C@H](N)C(=O)O [Methionine, L-methionine]
activation at 1 % (S. aureus [2]; [4]): 10 to 30%
Effect on bacterial biofilm growth (bacterial biofilms): support (improve) bacterial biofilm growth

NCCC[C@H](N)C(=O)O [Ornithine, L-ornithine]
activation at 1 % (S. aureus [2]; [4]): 10 to 30%
activation at 1 % (S. aureus [3]; [5]): 10 to 30%
Effect on bacterial biofilm growth (bacterial biofilms): support (improve) bacterial biofilm growth

N[C@@H](Cc1ccccc1)C(=O)O [Phenylalanine, L-phenylalanine]
activation at 1 % (S. aureus [2]; [4]): 10 to 30%
activation at 1 % (S. aureus [3]; [5]): 10 to 30%
Effect on bacterial biofilm growth (bacterial biofilms): support (improve) bacterial biofilm growth

NCCOP(=O)(O)O [Phosphoethanolamine, 0-phosphoethanolamine]
Reduce B Biofilm (S. aureus [2]; [4]): ● (a single dot [ie. •] signifies minor effect (from about 10 to about 30% change))
Reduce B Biofilm (S. aureus [3]; [5]): ● (a single dot [ie. •] signifies minor effect (from about 10 to about 30% change))
Anti-biofilm effect against bacterial biofilms (reduction) (bacterial biofilms): less than twofold

N[C@@H](CO)C(=O)O [Serine, L-serine]
activation at 1 % (S. aureus [2]; [4]): 10 to 30%
activation at 1 % (S. aureus [3]; [5]): 10 to 30%
Effect on bacterial biofilm growth (bacterial biofilms): support (improve) bacterial biofilm growth

NCCS(=O)(=O)O [Taurine, L-taurine]
activation at 1 % (S. aureus [2]; [4]): 10 to 30%
activation at 1 % (S. aureus [3]; [5]): 10 to 30%
Effect on bacterial biofilm growth (bacterial biofilms): support (improve) bacterial biofilm growth

C[C@@H](O)[C@H](N)C(=O)O [Threonine, L-threonine]
activation at 1 % (S. aureus [2]; [4]): 10 to 30%
Effect on bacterial biofilm growth (bacterial biofilms): support (improve) bacterial biofilm growth

N[C@@H](Cc1c[nH]c2ccccc12)C(=O)O [Tryptophan, L-tryptophan]
Effect on bacterial or fungal biofilms in both assays [1]: neutral

N[C@@H](Cc1ccc(O)cc1)C(=O)O [Tyrosine, L-tyrosine]
Effect on biofilms ([1]; single component on its own): neutral effect on biofilms
Effect on bacterial or fungal biofilms in both assays [1]: neutral
